Values after ≈ are worked out from the molar mass of the structure shown.
What was measured:
[1] = Inhibition of Staphylococcus aureus BPL assessed as inhibition constant by biotinylation assay
Staphylococcus aureus [2] = assay: Antibacterial activity against methicillin-resistant Staphylococcus aureus USA300 incubated for 16 to 20 hrs by CLSI based broth microdilution method; type: functional; conditions: time 16-20 hrs
Staphylococcus aureus [3] = assay: Antibacterial activity against methicillin-resistant Staphylococcus aureus […] incubated for 16 to 20 hrs by CLSI based broth microdilution method; type: functional; conditions: time 16-20 hrs
Staphylococcus aureus [4] = assay: Antibacterial activity against methicillin-susceptible Staphylococcus aureus ATCC 29213 incubated for 16 to 20 hrs by CLSI based broth microdilution method; type: functional; conditions: time 16-20 hrs
Staphylococcus aureus [5] = assay: Antibacterial activity against methicillin-susceptible Staphylococcus aureus ATCC 49775 incubated for 16 to 20 hrs by CLSI based broth microdilution method; type: functional; conditions: time 16-20 hrs

| Compound | Ki [1] | MIC (Staphylococcus aureus [2]) | MIC (Staphylococcus aureus [3]) | MIC (Staphylococcus aureus [4]) | MIC (Staphylococcus aureus [5]) |
| --- | --- | --- | --- | --- | --- |
| Nc1ncnc2c1ncn2CCCCNS(=O)(=O)NC(=O)NCCCC[C@@H]1SC[C@@H]2NC(=O)N[C@@H]21 | 65 nM | – | – | – | – |
| Nc1ncnc2c1ncn2CCCCS(=O)(=O)NC(=O)OCCCCC[C@@H]1SC[C@@H]2NC(=O)N[C@@H]21 | 10.3 nM | > 256 µg/mL | > 256 µg/mL | > 256 µg/mL | > 256 µg/mL |
| Nc1ncnc2c1ncn2CCCCOS(=O)(=O)NC(=O)NCCCC[C@@H]1SC[C@@H]2NC(=O)N[C@@H]21 | 35.3 nM | 32 µg/mL (≈ 60.6 µM) | 16 µg/mL (≈ 30.3 µM) | 32 µg/mL (≈ 60.6 µM) | 32 µg/mL (≈ 60.6 µM) |
| Nc1ncnc2c1ncn2CCCCNS(=O)(=O)NC(=O)CCCC[C@@H]1SC[C@@H]2NC(=O)N[C@@H]21 | 7 nM | – | – | – | – |
| Nc1ncnc2c1ncn2CCCCCS(=O)(=O)NC(=O)NCCCC[C@@H]1SC[C@@H]2NC(=O)N[C@@H]21 | 57.2 nM | 16 µg/mL (≈ 30.4 µM) | 16 µg/mL (≈ 30.4 µM) | 16 µg/mL (≈ 30.4 µM) | 16 µg/mL (≈ 30.4 µM) |
| Nc1ncnc2c1ncn2CCCNS(=O)(=O)NC(=O)OCCCCC[C@@H]1SC[C@@H]2NC(=O)N[C@@H]21 | 20.1 nM | 32 µg/mL (≈ 60.6 µM) | 16 µg/mL (≈ 30.3 µM) | 32 µg/mL (≈ 60.6 µM) | 32 µg/mL (≈ 60.6 µM) |
